Publication PMC10817512, “OSMAC-Based Discovery and Biosynthetic Gene Clusters Analysis of Secondary Metabolites from Marine-Derived Streptomyces globisporus SCSIO LCY30” (Marine Drugs, 2023)
≈ marks a conversion by molar mass, not a printed value. Like-named read-outs stand apart in the source and are kept apart here.

Tests used:
[1] = system: TNBC cell lines MDA-MB-231, MDA-MB-468, and Bt-549; test: Cytotoxicity, span over TNBC cell lines; type: cell-based; details: Homo sapiens; span over MDA-MB-231, MDA-MB-468 and Bt-549; read-out: IC50 values, range against TNBC cell lines
Excerpt: (§1) The cell growth inhibitory activities of compounds 1–3 against fourteen different human cell lines (human liver cell line LX-2; hepatocellular cancer line HEPG2; human intestinal epithelial cell line NCM460; colorectal cancer cell lines HCT116 and SW480; normal human breast cell line MCF-10A; breast cancer cell line MCF7; triple-negative breast cancer cell lines MDA-MB-231, MDA-MB-468, and Bt-549; human umbilical vein endothelial cell line; lung cancer cell line A549; cervical cancer cell line Hela; and cholangiocarcinoma cell line RBE) were tested according to the previously published methods. SPSS software version 22.0 was used to test the IC50 values. Cisplatin and adriamycin were used as positive control agents, and all the experiments were carried out in triplicate.

[2] = system: cervical cancer cell line Hela; test: Cell growth inhibitory (cytotoxic) activity assay; type: cell-based, human; details: Homo sapiens
Excerpt: as §1

[3] = system: colorectal cancer cell line HCT116; test: Cell growth inhibitory (cytotoxic) activity assay; type: cell-based, human; details: Homo sapiens, HCT-116
Excerpt: as §1

[4] = system: triple-negative breast cancer cell line MDA-MB-468; test: Cell growth inhibitory (cytotoxic) activity assay; type: cell-based, human; details: Homo sapiens; MDA-MB-468 (TNBC)
Excerpt: as §1

[5] = system: colorectal cancer cell line SW480; test: Cell growth inhibitory (cytotoxic) activity assay; type: cell-based, human; details: for IC50: Homo sapiens, SW480 (colorectal cancer)
Excerpt: as §1

[6] = system: lung cancer cell line A549; test: Cell growth inhibitory (cytotoxic) activity assay; type: cell-based, human; details: Homo sapiens
Excerpt: as §1

[7] = system: cholangiocarcinoma cell line RBE; test: Cell growth inhibitory (cytotoxic) activity assay; type: cell-based, human; details: Homo sapiens
Excerpt: as §1

[8] = system: triple-negative breast cancer cell line Bt-549; test: Cell growth inhibitory (cytotoxic) activity assay; type: cell-based, human; details: Homo sapiens; Bt-549 (TNBC)
Excerpt: as §1

[9] = system: hepatocellular cancer line HEPG2; test: Cell growth inhibitory (cytotoxic) activity assay; type: cell-based, human; details: Homo sapiens
Excerpt: as §1

[10] = system: triple-negative breast cancer cell line MDA-MB-231; test: Cell growth inhibitory (cytotoxic) activity assay; type: cell-based, human; details: Homo sapiens; MDA-MB-231 (TNBC)
Excerpt: as §1

[11] = system: human liver cell line LX-2; test: Cell growth inhibitory (cytotoxic) activity assay; type: cell-based; details: LX-2 (human liver cell line)
Excerpt: as §1

[12] = system: human umbilical vein endothelial cell line HUVEC; test: Cell growth inhibitory (cytotoxic) activity assay; type: cell-based
Excerpt: as §1

[13] = system: human intestinal epithelial cell line NCM460; test: Cell growth inhibitory (cytotoxic) activity assay; type: cell-based; details: Homo sapiens; NCM460 (normal intestinal epithelial cell line)
Excerpt: as §1

[14] = system: normal human breast cell line MCF-10A; test: Cell growth inhibitory (cytotoxic) activity assay; type: cell-based; details: MCF-10A (normal human breast cell line)
Excerpt: as §1

[15] = system: breast cancer cell line MCF7; test: Cell growth inhibitory (cytotoxic) activity assay; type: cell-based, human; details: Homo sapiens
Excerpt: SPSS software version 22.0 was used to test the IC50 values.

[16] = system: Staphylococcus simulans AKA1; test: Antibacterial MIC, CLSI microdilution; type: cell-based; details: Staphylococcus simulans AKA1; 37 °C, 16–18 h; read-out: MIC
Bacillus subtilis BS01 = test: Antibacterial MIC, CLSI microdilution; type: cell-based; details: Bacillus subtilis BS01; 37 °C, 16–18 h; read-out: MIC
Description: (§2) An antibacterial activity test of compounds 1–3 was conducted according to a standard protocol provided by the Clinical and Laboratory Standards Institute (CLSI). Sixteen bacterial strains were used, including Staphylococcus aureus ATCC 29213, Staphylococcus aureus 16339, Staphylococcus aureus 1862, Staphylococcus aureus 3090, Staphylococcus aureus 991, Staphylococcus aureus 669, Staphylococcus aureus 745324, Staphylococcus aureus 16162, Staphylococcus aureus (cfr) GDE4P037P, Enterococcus faecalis ATCC 29212, Enterococcus faecalis 36950, Micrococcus luteus ML01, MRSA, Bacillus subtilis BS01, Enterococcus gallinarum 5F52C, and Enterococcus faecium 36711. Compounds 1–3 were dissolved in DMSO at a concentration of 3.2 mg/mL, and vancomycin and ampicilin were used as antibacterial control agents. […] All the assays were carried out in triplicate.

[17] = system: Enterococcus faecalis 36950; test: Antibacterial MIC, CLSI microdilution; type: cell-based; details: Enterococcus faecalis 36950; 37 °C, 16–18 h; read-out: MIC
Description: as §2

Micrococcus luteus ML01 = test: Antibacterial MIC, CLSI microdilution; type: cell-based; details: 37 °C, 16–18 h
Description: as §2

[18] = system: Enterococcus faecalis ATCC 29212; test: Antibacterial MIC, CLSI microdilution; type: cell-based; details: ATCC29212; Enterococcus faecalis ATCC 29212; 37 °C, 16–18 h; read-out: MIC
Description: as §2

[19] = system: Enterococcus faecium 36711; test: Antibacterial MIC, CLSI microdilution; type: cell-based; details: Enterococcus faecium 36711; 37 °C, 16–18 h; read-out: MIC
Description: as §2

[20] = system: Staphylococcus aureus 1862; test: Antibacterial MIC, CLSI microdilution; type: cell-based; details: Staphylococcus aureus 1862; 37 °C, 16–18 h; read-out: MIC
Description: as §2

[21] = system: Staphylococcus aureus 16339; test: Antibacterial MIC, CLSI microdilution; type: cell-based; details: Staphylococcus aureus 16339; 37 °C, 16–18 h; read-out: MIC
Description: as §2

[22] = system: Enterococcus gallinarum 5F52C; test: Antibacterial MIC, CLSI microdilution; type: cell-based; details: Enterococcus gallinarum 5F52C; 37 °C, 16–18 h; read-out: MIC
Description: as §2

[23] = system: Staphylococcus aureus 669; test: Antibacterial MIC, CLSI microdilution; type: cell-based; details: Staphylococcus aureus 669; 37 °C, 16–18 h; read-out: MIC
Description: as §2

[24] = system: Staphylococcus aureus 745324; test: Antibacterial MIC, CLSI microdilution; type: cell-based; details: Staphylococcus aureus 745324; 37 °C, 16–18 h; read-out: MIC
Description: as §2

[25] = system: Staphylococcus aureus ATCC 29213; test: Antibacterial MIC, CLSI microdilution; type: cell-based; details: ATCC29213; Staphylococcus aureus ATCC 29213; 37 °C, 16–18 h; read-out: MIC
Description: as §2

[26] = system: Staphylococcus aureus (cfr) GDE4P037P; test: Antibacterial MIC, CLSI microdilution; type: cell-based; details: Staphylococcus aureus (cfr) GDE4P037P; 37 °C, 16–18 h; read-out: MIC
Description: as §2

[27] = system: Staphylococcus aureus 3090; test: Antibacterial MIC, CLSI microdilution; type: cell-based; details: Staphylococcus aureus 3090; 37 °C, 16–18 h; read-out: MIC
Description: as §2

[28] = system: Staphylococcus aureus 991; test: Antibacterial MIC, CLSI microdilution; type: cell-based; details: Staphylococcus aureus 991; 37 °C, 16–18 h; read-out: MIC
Description: as §2

[29] = system: Staphylococcus aureus 16162; test: Antibacterial MIC, CLSI microdilution; type: cell-based; details: Staphylococcus aureus 16162; 37 °C, 16–18 h; read-out: MIC
Description: as §2

MRSA = test: Antibacterial MIC, CLSI microdilution; type: cell-based, Staphylococcus aureus; details: Staphylococcus aureus, 37 °C, 16–18 h, read-out: MIC
Description: as §2

[30] = system: fourteen human cell lines; test: Cytotoxicity, span over the whole cell panel; type: cell-based; details: span of the IC50 values over all fourteen cell lines, read-out: IC50 values, range against fourteen human cell lines
Excerpt: as §1

[31] = system: methicillin-resistant Staphylococcus aureus; design: method as in PMID 27097765; details: ref [24]; cited from earlier work
Staphylococcus lentus = system: Staphylococcus lentus; design: method as in PMID 18396903; details: ref [35]; cited from earlier work
Bacillus subtilis = system: Bacillus subtilis; design: method as in PMID 18396903; details: ref [35]; cited from earlier work
[32] = Micrococcus luteus, ML01, Micrococcus luteus ML01, read-out: MIC

Cc1cc(O)c2c3c(c(O)c(C4CC(N)C(O)C(C)O4)c2c1)C(=O)c1c(O)cccc1C3=O (stereo not drawn) [Mayamycin B (2), mayamycin B]
IC50 [1]: 3.01 to 6.08 µM
IC50 [2]: 2.8 µM
IC50 [3]: 2.05 µM
IC50 [4]: 6.08 µM
IC50 [5]: 2.87 µM
IC50 [6]: 5.08 µM
IC50 [7]: 4.06 µM
IC50 [8]: 3.87 µM
IC50 [9]: 6 µM
IC50 [10]: 3.01 µM
IC50 [11]: 5.33 µM
IC50 [12]: 4.41 µM
IC50 [13]: 7.16 µM
IC50 [14]: 5.21 µM
IC50 [15]: 4.15 µM
MIC [16]: 64 µg/mL (≈ 142 µM)
MIC (Bacillus subtilis BS01): 8 µg/mL (≈ 17.8 µM)
MIC [17]: 8 µg/mL (≈ 17.8 µM)
MIC (Micrococcus luteus ML01; Micrococcus luteus ML01): 1 µg/mL (≈ 2.22 µM)
MIC (Micrococcus luteus ML01; [32]): 1 to 2 µg/mL (≈ 2.22 to 4.45 µM)
MIC [18]: 16 µg/mL (≈ 35.6 µM)
MIC [19]: 32 µg/mL (≈ 71.2 µM)
MIC [20]: 16 µg/mL (≈ 35.6 µM)
MIC [21]: 16 µg/mL (≈ 35.6 µM)
MIC [22]: 32 µg/mL (≈ 71.2 µM)
MIC [23]: 16 µg/mL (≈ 35.6 µM)
MIC [24]: 8 µg/mL (≈ 17.8 µM)
MIC [25]: 16 µg/mL (≈ 35.6 µM)
MIC [26]: 8 µg/mL (≈ 17.8 µM)
MIC [27]: 8 µg/mL (≈ 17.8 µM)
MIC [28]: 16 µg/mL (≈ 35.6 µM)
MIC [29]: 16 µg/mL (≈ 35.6 µM)
MIC (MRSA): 8 µg/mL (≈ 17.8 µM)
IC50 [30]: 2.05 to 7.16 µM

C[C@]1(O)CC(=O)c2c(cc(O)c3c2C(=O)c2cccc(O)c2C3=O)C1 [Rabelomycin (3), rabelomycin]
IC50 [1]: 2.18 to 8.67 µM
IC50 [2]: 16.1 µM
IC50 [3]: 4.72 µM
IC50 [4]: 2.18 µM
IC50 [5]: 1.57 µM
selective index (SI) ([5]; SW480 versus normal intestinal epithelial cell line NCM460): 4.49
IC50 [6]: 5.97 µM
IC50 [7]: 4.23 µM
IC50 [8]: 7.85 µM
IC50 [9]: 8.64 µM
IC50 [10]: 8.67 µM
IC50 [11]: 13.4 µM
IC50 [12]: 10.9 µM
IC50 [13]: 7.05 µM
IC50 [14]: 11.3 µM
IC50 [15]: 4.48 µM
MIC [16]: 16 µg/mL (≈ 47.3 µM)
MIC (Bacillus subtilis BS01): 4 µg/mL (≈ 11.8 µM)
MIC [17]: 8 µg/mL (≈ 23.6 µM)
MIC (Micrococcus luteus ML01; Micrococcus luteus ML01): 2 µg/mL (≈ 5.91 µM)
MIC (Micrococcus luteus ML01; [32]): 1 to 2 µg/mL (≈ 2.96 to 5.91 µM)
MIC [18]: 8 µg/mL (≈ 23.6 µM)
MIC [19]: 32 µg/mL (≈ 94.6 µM)
MIC [20]: 8 µg/mL (≈ 23.6 µM)
MIC [21]: 8 µg/mL (≈ 23.6 µM)
MIC [22]: 32 µg/mL (≈ 94.6 µM)
MIC [23]: 16 µg/mL (≈ 47.3 µM)
MIC [24]: 8 µg/mL (≈ 23.6 µM)
MIC [25]: 8 µg/mL (≈ 23.6 µM)
MIC [26]: 4 µg/mL (≈ 11.8 µM)
MIC [27]: 8 µg/mL (≈ 23.6 µM)
MIC [28]: 16 µg/mL (≈ 47.3 µM)
MIC [29]: 8 µg/mL (≈ 23.6 µM)
MIC (MRSA): 8 µg/mL (≈ 23.6 µM)
IC50 [30]: 1.57 to 16.1 µM

(-)-Streptophenazine B
MIC [31]: 4.2 µg/mL

streptophenazine C
MIC (Staphylococcus lentus): 46.9 µg/mL
MIC (Bacillus subtilis): 15.6 µg/mL
